Values quoted from earlier work in patent publication US20050181036A1 (Research Development Foundation, priority 2003, published 2005).
Entries after “also recorded” stand apart in the source; their conditions may differ.

solubility in dimethylsulfoxide (dimethylsulfoxide): soluble
solubility in ethanol (ethanol): soluble
solubility in ether (ether): insoluble
SMILES: COc1cc(/C=C/C(=O)CC(=O)/C=C/c2ccc(O)c(OC)c2)ccc1O [Curcumin, diferuloylmethane]
solubility in water (water): insoluble; also recorded: not water-soluble
